Laboratory results taken from ChEMBL document CHEMBL1201862, “PubChem BioAssay data set” (2004).
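In this assay, cells in 96-well plates receive the compound at five concentrations for 48 hours. Endpoints are linearly interpolated between the surrounding concentrations. GI50 marks 50% less growth.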 Activity calls are given as the source filed them. Cut-off read from the data, not from the text of the source: active = GI50 up to about 1.1 µM and inactive = higher.

Columns and labels:
Assay in all cases: inhibition of tumour cell growth, NCI panel, 48 h
UACC-62 = test system: UACC-62
RPMI-8226 = test system: RPMI-8226
HCT-116 = test system: HCT-116
HCC 2998 = test system: HCC 2998
A498 = test system: A498
M14 = test system: M14
Malme-3M = test system: Malme-3M
KM12 = test system: KM12
SF-268 = test system: SF-268
ACHN = test system: ACHN
K562 = test system: K562
NCI-H226 = test system: NCI-H226
EKVX = test system: EKVX
786-0 = test system: 786-0
OVCAR-4 = test system: OVCAR-4
SNB-75 = test system: SNB-75
A549 = test system: A549
HL-60 = test system: HL-60

Measured: GI50

CCCCCCN(N)C(=O)CC#N
inactive: UACC-62 60.4 µM | RPMI-8226 19.8 µM | HCT-116 47.6 µM | HCC 2998 > 100 µM | A498 > 100 µM | M14 > 100 µM | Malme-3M > 100 µM | KM12 23 µM | SF-268 > 100 µM | ACHN 95.5 µM | K562 39.6 µM | NCI-H226 > 100 µM | EKVX > 100 µM | 786-0 > 100 µM | OVCAR-4 48.4 µM | SNB-75 > 100 µM | A549 > 100 µM

C[N+](C)(C)CC(=O)N/N=C(/Cc1nc2ccc([N+](=O)[O-])cc2nc1O)C(=O)Nc1cc(C(F)(F)F)ccc1Cl
inactive: UACC-62 94.2 µM | RPMI-8226 63.1 µM | HCT-116 > 100 µM | HCC 2998 > 100 µM | A498 > 100 µM | M14 > 100 µM | Malme-3M > 100 µM | KM12 > 100 µM | SF-268 > 100 µM | ACHN > 100 µM | K562 > 100 µM | EKVX 76 µM | HL-60 > 100 µM | 786-0 > 100 µM | OVCAR-4 > 100 µM | A549 > 100 µM

Cc1cc(O)c2c3c1C(=O)Oc1c(CO)c(O)c(C(=O)O)c(c1O3)C=NN=Cc1c3c(c(CO)c(O)c1C(=O)O)OC(=O)c1c(C)cc(O)c(c1O3)C=NN=C2
inactive: UACC-62 > 100 µM | HCT-116 > 100 µM | HCC 2998 > 100 µM | A498 > 100 µM | M14 > 100 µM | Malme-3M > 100 µM | KM12 48.6 µM | SF-268 > 100 µM | ACHN > 100 µM | NCI-H226 > 100 µM | EKVX > 100 µM | 786-0 > 100 µM | OVCAR-4 > 100 µM | SNB-75 > 100 µM | A549 > 100 µM

CO[C@H](c1ccccc1)[C@H](C)N(C)c1ccc2ccccc2c1C1=NC(C)(C)CO1
inactive: UACC-62 33.1 µM | RPMI-8226 15.6 µM | HCT-116 10.8 µM | M14 16.5 µM | Malme-3M 16.3 µM | KM12 17.1 µM | SF-268 18.4 µM | ACHN 16 µM | K562 11.7 µM | NCI-H226 16.2 µM | EKVX 20.1 µM | HL-60 21.3 µM | 786-0 16.2 µM | OVCAR-4 > 10 µM | SNB-75 15.5 µM | A549 15.9 µM

N#Cc1c(-c2ccc(Cl)c(Cl)c2)c(-c2ccc(Cl)c(Cl)c2)nn(CC(=O)O)c1=O
inactive: UACC-62 > 100 µM | RPMI-8226 79.4 µM | HCT-116 41.5 µM | HCC 2998 52.2 µM | M14 99.8 µM | Malme-3M > 100 µM | KM12 43.7 µM | ACHN 61.5 µM | K562 43.9 µM | NCI-H226 24 µM | EKVX > 100 µM | HL-60 43.1 µM | 786-0 > 100 µM | OVCAR-4 > 100 µM | SNB-75 30.5 µM | A549 87.7 µM

N#C/C(=C\c1c(O)cc(O)cc1O)C(N)=O
inactive: RPMI-8226 > 100 µM | HCT-116 > 100 µM | HCC 2998 > 100 µM | A498 > 100 µM | M14 > 100 µM | Malme-3M > 100 µM | KM12 > 100 µM | SF-268 > 100 µM | ACHN > 100 µM | K562 > 100 µM | NCI-H226 > 100 µM | EKVX > 100 µM | HL-60 > 100 µM | 786-0 > 100 µM | OVCAR-4 > 100 µM | SNB-75 36.2 µM | A549 > 100 µM

O/N=C1/C(=C/c2ccc(Cl)c(Cl)c2)CCCC1C(NO)c1ccc(Cl)c(Cl)c1 (stereo not drawn)
inactive: UACC-62 18 µM | RPMI-8226 17.1 µM | HCT-116 16.2 µM | HCC 2998 17.1 µM | A498 14.4 µM | M14 17.4 µM | Malme-3M 20 µM | KM12 18 µM | SF-268 23.5 µM | ACHN 18.4 µM | K562 21.3 µM | EKVX 21.9 µM | HL-60 17.6 µM | 786-0 19.5 µM | OVCAR-4 12.9 µM | SNB-75 16.6 µM | A549 17.2 µM

O=C1OC(=O)C([Se]c2ccccc2)=C1[Se]c1ccccc1
inactive: UACC-62 > 100 µM | RPMI-8226 > 100 µM | HCT-116 > 100 µM | A498 > 100 µM | M14 > 100 µM | Malme-3M > 100 µM | SF-268 > 100 µM | ACHN > 100 µM | K562 > 100 µM | NCI-H226 > 100 µM | EKVX > 100 µM | HL-60 > 100 µM | 786-0 > 100 µM | OVCAR-4 > 100 µM | SNB-75 > 100 µM | A549 > 100 µM

C/C(=N/N)c1ccc2[nH]c3c(C)cc([N+](=O)[O-])c(C)c3c2c1
inactive: RPMI-8226 8.97 µM | HCT-116 4.09 µM | HCC 2998 17.5 µM | M14 15 µM | Malme-3M 4.33 µM | KM12 > 10 µM | SF-268 8.22 µM | ACHN 9.38 µM | K562 2.93 µM | NCI-H226 14.3 µM | EKVX 22.2 µM | HL-60 > 100 µM | 786-0 4.6 µM | OVCAR-4 14.8 µM | SNB-75 22.9 µM | A549 11.1 µM

CC1=C(C(=O)Nc2cc(=O)n(C)c(=O)n2C)C(c2cccc([N+](=O)[O-])c2)C(C(=O)Nc2cc(=O)n(C)c(=O)n2C)=C(C)N1
inactive: RPMI-8226 62.5 µM | HCC 2998 31.5 µM | A498 49.5 µM | M14 > 100 µM | Malme-3M > 100 µM | KM12 > 100 µM | SF-268 > 100 µM | ACHN 89.7 µM | K562 72.4 µM | NCI-H226 > 100 µM | EKVX 15.9 µM | HL-60 > 100 µM | 786-0 > 100 µM | OVCAR-4 > 100 µM | SNB-75 17.5 µM | A549 > 100 µM

CCOC(=O)c1cnc2cc3cccccc3n2c1=O
inactive: UACC-62 > 100 µM | RPMI-8226 > 100 µM | HCT-116 39.3 µM | HCC 2998 > 100 µM | A498 > 100 µM | M14 > 100 µM | KM12 60.7 µM | SF-268 > 100 µM | ACHN > 100 µM | K562 > 100 µM | NCI-H226 > 100 µM | EKVX > 100 µM | HL-60 > 100 µM | 786-0 > 100 µM | OVCAR-4 > 100 µM | SNB-75 97.5 µM | A549 > 100 µM

Cn1ccnc1CCc1c(Cl)cccc1Cl
inactive: UACC-62 > 100 µM | RPMI-8226 > 100 µM | HCT-116 > 100 µM | A498 > 100 µM | M14 > 100 µM | Malme-3M > 100 µM | KM12 > 100 µM | SF-268 > 100 µM | ACHN > 100 µM | K562 > 100 µM | NCI-H226 > 100 µM | HL-60 > 100 µM | 786-0 > 100 µM | OVCAR-4 > 100 µM | SNB-75 > 100 µM | A549 > 100 µM

O=C1N[C@H](Cc2c[nH]cn2)C(=O)N2CCC[C@@H]12
inactive: UACC-62 > 100 µM | RPMI-8226 > 100 µM | HCC 2998 > 100 µM | M14 > 100 µM | Malme-3M > 100 µM | KM12 > 100 µM | SF-268 > 100 µM | ACHN > 100 µM | K562 > 100 µM | EKVX > 100 µM | HL-60 > 100 µM | 786-0 > 100 µM | OVCAR-4 > 100 µM | SNB-75 65.8 µM | A549 > 100 µM

CCOC(=O)c1c[nH]c2c(ccc3nn(C)nc32)c1=O
inactive: UACC-62 > 100 µM | RPMI-8226 25.6 µM | HCT-116 24.9 µM | HCC 2998 > 100 µM | A498 > 100 µM | M14 > 100 µM | Malme-3M > 100 µM | KM12 > 100 µM | SF-268 > 100 µM | ACHN > 100 µM | K562 49.7 µM | NCI-H226 > 100 µM | EKVX > 100 µM | HL-60 57.3 µM | 786-0 > 100 µM | SNB-75 > 100 µM | A549 34 µM

Cc1c(Cl)c2ccccc2n1S(=O)(=O)c1ccccc1
inactive: UACC-62 87.3 µM | RPMI-8226 27.8 µM | HCT-116 39.2 µM | HCC 2998 33.6 µM | M14 37.8 µM | Malme-3M > 100 µM | KM12 37.9 µM | SF-268 64 µM | ACHN 38.1 µM | K562 38.5 µM | NCI-H226 37 µM | HL-60 25.8 µM | 786-0 59.6 µM | OVCAR-4 36.7 µM | SNB-75 19.9 µM | A549 41.3 µM

O=C1c2ccccc2CC1C1(O)C(=O)Nc2ccccc21 (stereo not drawn)
inactive: UACC-62 > 100 µM | RPMI-8226 > 100 µM | HCT-116 > 100 µM | A498 > 100 µM | M14 > 100 µM | Malme-3M > 100 µM | SF-268 > 100 µM | ACHN > 100 µM | K562 > 100 µM | NCI-H226 > 100 µM | EKVX > 100 µM | HL-60 > 100 µM | 786-0 > 100 µM | OVCAR-4 > 100 µM | SNB-75 87.3 µM | A549 > 100 µM

CCCC(C)C[C@@H](C)CC(C)/C=C(\C)c1oc(=O)c(C)c(O)c1C.CC[C@@H](C)C[C@@H](C)C[C@@H](C)/C=C(\C)c1oc(=O)c(C)c(O)c1C (stereo partly drawn)
inactive: HCT-116 17.6 µM | HCC 2998 12.9 µM | M14 15.5 µM | Malme-3M 3.56 µM | KM12 20.4 µM | SF-268 14.1 µM | ACHN 5.57 µM | NCI-H226 15.5 µM | EKVX 15.2 µM | HL-60 13.6 µM | 786-0 14.5 µM | OVCAR-4 10.4 µM | SNB-75 13.6 µM | A549 17.3 µM
